Ends that are not written are not given here.
Key:
[1] = system: LPS-stimulated TNF production in THP-1 cells; assay: LPS neutralization by TNF cellular toxicity assay (THP-1 / L929 cells); assay type: cell-based, human; conditions: 5 ng/mL LPS
From the text: A screening assay for LPS neutralization was developed using a tumor necrosis factor (TNF) cellular toxicity assay. A human monocytic cell line (THP-1; accession number TIB202, American Type Culture Collection, Rockville, Md.) grown in media supplemented with Vitamin D produce TNF upon stimulation with LPS in a dose-dependent fashion. Mouse fibroblasts (L929 cells; ATCC No.: CCL1) are sensitive to TNF-mediated cell killing, and this cell killing is also dose-dependent. Thus, the extent of cell killing of L929 cells provides a sensitive assay for the degree of TNF induction in THP-1 cells, which in turn is a sensitive indicator of the amount of free LPS in contact with the THP-1 cells. LPS binding and neutralization by BPI functional domain peptides or rBPI23 reduces the amount of free LPS in contact with THP-1 cells, which reduces the amount of TNF produced, which in turn reduces the amount of L929 cell killing in a standardized assay. Thus, the following assay provides a sensitive method for assessing the LPS binding and neutralization capacity of the BPI functional domain peptides of this invention.
THP-1 cells were grown in RPMI media (GIBCO, Long Island, N.Y.) supplemented with 10% FCS and Vitamin D in spinner culture for 3 days to a density of about 150,000 cells/mL. Cells were then plated in a round-bottomed 96-well culture plate at a density of 100,000 cells/well and incubated in RPMI media without Vitamin D or FCS in the presence of 5 ng/mL E. coli 01113 LPS for 6 hr at 37° C. Experimental control wells also contained varying amounts of rBPI23 or BPI functional domain peptides, in concentrations varying from about 0.1 μg/mL to about 100 μg/mL. After this incubation, the plates were centrifuged at about 600×g to pellet the cells, and 50 μL of the supernatant were added to a 96-well flat bottomed culture dish prepared in parallel with 50,000 L929 cells per well in 50 μL RPMI/10% FCS.
L929 cells were prepared by monolayer growth in RPMI/10% FCS media to a density of about 1 million cells per dish, then split 1:2 on the day before the experiment and allowed to grow overnight to about 70% confluence on the day of the experiment. Actinomycin D was added to the 70% confluent culture to a final concentration of 1 μg/mL 20 min prior to plating in 96-well plates. L929 cell plates were incubated in the presence of the THP-1 supernatant for about 16 hr (overnight) at 37° C. under standard conditions of mammalian cell growth. To each well was then added […] of a solution prepared by diluting 100 μL of phenazine methylsulfonate in 2 mL CellTitre 96™ AQueous solution (Promega, Madison, Wis.), containing 3-[(4,5-dimethyl)-thiozol-2-yl]-5-(3-carboxymethoxyphenyl)-2-(4-sulfonyl)-2H-tetrazolium (inner salt). The cultures were allowed to incubate for 2-4 hr at 37° C. and then analyzed spectrophotometrically to determine the optical absorbance at 490 nm (A490). Experimental results were evaluated relative to a semilog standard curve prepared with known amounts of TNF, varying from about 10 ng/mL to about […].

[2] = system: LPS-stimulated NO production by RAW 264.7 cells; assay: LPS-stimulated NO production by RAW 264.7 cells; assay type: cell-based, mouse; conditions: for IC50 NO assay: LPS-stimulated NO production by RAW 264.7 cells
Experimental: (§1) An additional LPS neutralization screening assay for BPI functional domain peptides was developed using an assay for NO production in mouse cells treated with LPS (see Lorsbach et al., 1993, J. Biol. Chem. 268: 1908-1913). In this assay, mouse RAW 264.7 cells (ATCC Accession No. TIB71) were treated with bacterial LPS. The cells were incubated in 96-well plates and stimulated for 2 hours with E. coli 0113 LPS or zymosan, in the presence or absence of _-interferon, rLBP, fetal bovine serum (FBS) or normal human serum (NHS), or rBPI21Δcys. After this incubation, the cells were washed with fresh media and incubated overnight in media containing 10% FCS. The NO released from the cells accumulated in the media and spontaneously converted to nitrite. This nitrite was assayed in situ by the Griess reaction, as follows. The nitrite was reacted with the primary amine of an added sulfanilamide and formed a diazonium salt. This salt was then reacted with added naphthylethylenediamine to form a red azo-dyc. The Griess reaction was performed at room temperature in about 10 minutes. The amount of produced NO was estimated from a standard curve of Griess reaction products determined spectrophotometrically as Absorbance at a wavelength of 550 nm.

[3] = system: E. coli strain 07-K1; assay: Radial diffusion bactericidal assay, E. coli 07-K1; assay type: cell-based; conditions: FIG. 10c
Experimental: BPI proteolytic fragments produced according to Example 1 were screened for bactericidal effects using rough mutant E. coli J5 bacteria in a radial diffusion assay. Specifically, an overnight culture of E. coli J5 was diluted 1:50 into fresh tryptic soy broth and incubated for 3 hours at 37° C. to attain log phase growth of the culture. Bacteria were then pelleted at 3,000 rpm for 5 minutes in a Sorvall RT6000B centrifuge (Sorvall Instruments, Newton, Conn.). 5 mL of 10 mM sodium phosphate buffer (pH 7.4) was added and the preparation was re-pelleted. […] The bacteria were diluted to 4×10^6 CFU/mL in 10 mL of molten underlayer agarose (at approximately 45° C.) and inverted repeatedly to mix in 15 mL polypropylene tubes conventionally used for this purpose.
The entire contents of such tubes were then poured into a level square petri dish and distributed evenly by rocking the dish side-to-side. […] A series of wells were then punched into the hardened agarose using a sterile 3 mm punch attached to a vacuum apparatus. The punch was sterilized with 100% alcohol and allowed to air dry prior to use to avoid contaminating the bacterial culture.
5 or 10 μL of each of the BPI fragments were carefully pipetted into each well. As a negative control, dilution buffer (pH 8.3) was added to a separate well, and rBPI23 at concentrations of 5 μg/mL and 1 μg/mL were also added as positive controls. Each plate was incubated at 37° C. for 3 hours, and then 10 mL of molten overlayer agarose (at approximately 45° C.) was added into the level petri dish, allowed to harden and incubated overnight at 37° C. […] The bacterial zones were measured with a micrometer.
Additional experiments were performed using various other bacteria as target cells to examine the range of bactericidal killing of these BPI functional domain peptides.

[4] = system: Klebsiella pneumoniae; assay: Radial diffusion bactericidal assay, Klebsiella pneumoniae; assay type: cell-based
[5] = system: C. albicans; assay: Radial diffusion fungicidal assay, Candida albicans; assay type: cell-based; conditions: radial diffusion
[6] = system: zymosan-stimulated NO production by RAW 264.7 cells; assay: Zymosan-stimulated NO production by RAW 264.7 cells; assay type: cell-based, mouse
Experimental: as §1

[7] = FIG. 11c, up to about 2000 pmol

Substance | IC50 (LPS-stimulated TNF production, L929 cell killing) [1] | inhibition of LPS-stimulated NO production (in words) [2] | IC50 NO assay [2] | bactericidal activity (in words) [3] | bactericidal activity (in words) [4, 7] | bactericidal activity (in words) ([4]; FIG. 10d) | C. albicans: pmol required for 30 mm^2 zone [5] | inhibition of zymosan-stimulated NO production (in words) [6]
KWKAAARFLKKWKAAARFLK [BPI.48] | 1 µg/mL |  |  |  |  |  |  | 
KSKVGWLIQLFHKK-NH2 (C-terminus assumed) [BPI.13] | 20 µg/mL | detectable levels of LPS neutralization | 16 µg/mL | low levels of bactericidal activity | showed bactericidal activity | low levels of activity | 221.63 pmol | 
KWKAQKRFLKKWKAQKRFLK-NH2 (C-terminus assumed) [BPI.7] | 30 µg/mL |  | Not Inhibitory | high levels of bactericidal activity |  | low levels of activity |  | small amount of inhibition by BPI.7 at high concentrations
NVGLKFSISNANIKISGKWKAQKRFLK [BPI.3] |  | detectable levels of LPS neutralization |  |  |  |  |  | not inhibited
KWKAQKRFLKKSKVGWLIQLFHKK-NH2 (C-terminus assumed) [BPI.30] | 6 to 7 µg/mL | detectable levels of LPS neutralization |  | high levels of bactericidal activity | showed bactericidal activity | highest amount of bactericidal activity | >1653.50 pmol | inhibited by BPI.30 at high (—100 μg/mL) concentrations
KSKVGWLIQLFHKKKSKVGWLIQLFHKK-NH2 (C-terminus assumed) [BPI.29] | 2 to 3 µg/mL | detectable levels of LPS neutralization | 2.4 µg/mL | moderate bactericidal activity |  | moderate levels of activity | >1469.25 pmol | 
IKISGKWKAQKRFLK [BPI.2] |  |  |  |  |  |  |  | not inhibited
